Assay results: patent US11286268B1, “EIF4E-inhibiting compounds and methods” (EFFECTOR THERAPEUTICS, INC., priority 2019, dated 2022)
Like-named read-outs stand apart in the source and are kept apart here.

Molecular target: recombinant eIF4E (Homo sapiens (Human), UniProt P06730)
Assay: Fluorescence polarization competition assay for eIF4E binding potency
Method in brief: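 IC50 values reflect 50% displacement of 20 nM EDA-m7GDP-ATTO-550 from 75 nM eIF4E, measured by fluorescence polarization after 30 min at room temperature. Buffer: 20 mM Tris pH 7.5, 100 mM NaCl, 1 mM DTT, 0.02% Tween-20; 1% DMSO.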

[1] = fluorescence polarization competition, 75 nM recombinant eIF4E, 20 nM EDA-m7GDP-ATTO-550, IC50 class, read-out: elF4E FP
[2] = inhibition of eIF4E/EDA-m7GDP-ATTO-550 binding by 50%, Table 4B calculated values, read-out: IC50

recombinant eIF4E, sequence (P06730 whole entry): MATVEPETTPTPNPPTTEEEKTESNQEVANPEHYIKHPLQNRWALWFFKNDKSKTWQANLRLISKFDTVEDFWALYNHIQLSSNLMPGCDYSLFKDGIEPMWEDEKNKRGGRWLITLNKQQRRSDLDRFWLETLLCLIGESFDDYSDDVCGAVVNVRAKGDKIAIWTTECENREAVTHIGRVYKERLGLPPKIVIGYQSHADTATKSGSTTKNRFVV

IC50 [1] [nM] | IC50 [2] [nM] | SMILES
< 50 | 15.4 | Cc1cc(-c2cc(Cl)ccc2OCCn2c(C)nc3cc(C(F)(F)F)c(-c4ccns4)c(C#N)c3c2=O)c2scc(C(=O)O)c2n1 [compound 348]
< 50 | 5.84 | Cc1ccc(-c2c(C(F)(F)F)cc3nc(C)n(CCOc4ccc(Cl)cc4-c4cc(C)nc5c(C(=O)O)csc45)c(=O)c3c2C#N)c(C)n1 [compound 349]
< 50 | 14.2 | Cc1cc(C)c(-c2c(C(F)(F)F)cc3nc(C)n(CCOc4ccc(Cl)cc4-c4cc(C)nc5c(C(=O)O)csc45)c(=O)c3c2C#N)cn1 [compound 350]
> 1000 | 1270 | Cc1nc2cc(C(F)(F)F)cc(C#N)c2c(=O)n1CCOc1ccc(Cl)cc1-c1ccnc2c(C(C)(C)O)csc12 [compound 352]
50 to 1000 | 101 | Cn1cc(CCOc2ccc(Cl)cc2-c2ccnc3c(C(=O)O)csc23)c(=O)c2c(C#N)cc(C(F)(F)F)cc21 [compound 353]
50 to 1000 | 146 | CN1c2cc(C(F)(F)F)cc(C#N)c2C(=O)N(CCOc2ccc(Cl)cc2-c2ccnc3c(C(=O)O)csc23)C1(C)C [compound 355]
> 1000 | 1220 | Cc1nc2cc(C(F)(F)F)cc(C#N)c2c(=O)n1CCOc1[nH]c(=O)c(Cl)cc1-c1ccnc2c(C(=O)O)csc12 [compound 356]
50 to 1000 | 86.3 | Cc1nc2c(C(F)(F)F)ccc(C#N)c2c(=O)n1CCOc1ccc(Cl)cc1-c1ccnc2c(C(=O)O)csc12 [compound 358]
< 50 | 48.9 | Cc1nc2c(OC(F)F)ccc(C#N)c2c(=O)n1CCOc1ccc(Cl)cc1-c1ccnc2c(C(=O)O)csc12 [compound 359]
< 50 | 42.6 | Cc1nc2c(C(F)F)ccc(C#N)c2c(=O)n1CCOc1ccc(Cl)cc1-c1ccnc2c(C(=O)O)csc12 [compound 360]
50 to 1000 | 68.4 | Cc1c(CCOc2ccc(Cl)cc2-c2ccnc3c(C(=O)O)csc23)c(=O)c2c(C#N)c(Cl)c(C(F)(F)F)cc2n1C [compound 361]
50 to 1000 | 72.2 | Cc1c(CCOc2ccc(Cl)cc2-c2ccnc3c(C(=O)O)csc23)c(=O)c2c(C#N)cc(C(F)(F)F)cc2n1CCF [compound 362]
< 50 | 22.8 | Cc1cc(-c2cc(Cl)ccc2OCCn2c(C)nc3cc(C(F)(F)F)c(C)c(C#N)c3c2=O)c2scc(C(=O)O)c2n1 [compound 363]
50 to 1000 | 107 | Cc1cc(-c2cc(Cl)ccc2OCCn2c(C)nc3c(C)c(C(F)(F)F)cc(C#N)c3c2=O)c2scc(C(=O)O)c2n1 [compound 364]
< 50 | 19 | Cc1cc(-c2cc(Cl)ccc2OCCn2c(C)nc3cnc(CCN(C)C)c(C#N)c3c2=O)c2scc(C(=O)O)c2n1 [compound 365]
< 50 | 6.66 | Cc1cc(-c2cc(Cl)ccc2OCCn2c(C)nc3cc(F)c(CN4CCN(C)CC4)c(C#N)c3c2=O)c2scc(C(=O)O)c2n1 [compound 366]
< 50 | 2.87 | Cc1cc(-c2cc(Cl)ccc2OCCn2c(C)nc3cc(F)c(CN4CCOCC4)c(C#N)c3c2=O)c2scc(C(=O)O)c2n1 [compound 367]
< 50 | 41.1 | Cc1cc(-c2cc(Cl)ccc2OCCn2c(C)nc3cc(F)c(C)c(C#N)c3c2=O)c2scc(C(=O)O)c2n1 [compound 368]
< 50 | 1.32 | COc1c(CN(C)C)cc2nc(C)n(CCOc3ccc(Cl)cc3-c3cc(C)nc4c(C(=O)O)csc34)c(=O)c2c1C#N [compound 369]
< 50 | 12.1 | Cc1cc(-c2cc(Cl)ccc2OCCn2c(C)nc3cc(CN(C)C)c(OC(C)C)c(C#N)c3c2=O)c2scc(C(=O)O)c2n1 [compound 370]
< 50 | 20 | Cc1cc(-c2cc(Cl)ccc2OCCn2c(C)nc3ccc(OC(C)C)c(C#N)c3c2=O)c2scc(C(=O)O)c2n1 [compound 371]
< 50 | 7.34 | Cc1cc(-c2cc(Cl)ccc2OCCn2c(C)nc3c(C(F)F)ncc(C#N)c3c2=O)c2scc(C(=O)O)c2n1 [compound 372]
< 50 | 6.43 | Cc1cc(-c2cc(Cl)ccc2OCCn2c(C)nc3cc(C(F)(F)F)c(C4=CCN(C)CC4)c(C#N)c3c2=O)c2scc(C(=O)O)c2n1 [compound 373]
< 50 | 20.5 | Cc1nc2cc(C(F)(F)F)c(N3CCN(C)CC3)c(C#N)c2c(=O)n1CCOc1ccc(Cl)cc1-c1cccc(C(=O)O)c1 [compound 374]
50 to 1000 | 58 | Cc1cccc(-c2c(C(F)(F)F)cc3nc(C)n(CCOc4ccc(Cl)cc4-c4cccc(C(=O)O)c4)c(=O)c3c2C#N)n1 [compound 375]

IC50 [1] [nM] | IC50 [2] [nM] | SMILES
< 50 | 12.7 | Cc1nc2cc(C(F)(F)F)c(CC3CN(CC(F)F)C3)c(C#N)c2c(=O)n1CCOc1ccc(Cl)cc1-c1ccnc2c(C(=O)O)csc12 [compound 376]
50 to 1000 | 61.2 | Cc1nc2cc(C(F)(F)F)c(N3CCN(CC(F)F)CC3)c(C#N)c2c(=O)n1CCOc1ccc(Cl)cc1-c1cccc(C(=O)O)c1 [compound 377]
< 50 | 45.1 | CC(=O)N1CCN(c2c(C(F)(F)F)cc3nc(C)n(CCOc4ccc(Cl)cc4-c4cccc(C(=O)O)c4)c(=O)c3c2C#N)CC1 [compound 378]
< 50 | 26.7 | Cc1nc2cc(C(F)(F)F)c(N3CCN(c4ccccn4)CC3)c(C#N)c2c(=O)n1CCOc1ccc(Cl)cc1-c1cccc(C(=O)O)c1 [compound 379]
< 50 | 29.7 | Cc1nc2cc(C(F)(F)F)c(N3CCN(c4cccnc4)CC3)c(C#N)c2c(=O)n1CCOc1ccc(Cl)cc1-c1cccc(C(=O)O)c1 [compound 380]
< 50 | 20.9 | Cc1nc2cnc(C3CC3)c(C#N)c2c(=O)n1CC#Cc1ccc(Cl)cc1-c1ccnc2c(C(=O)O)csc12 [compound 384]
< 50 | 39.5 | Cc1cc(-c2cc(Cl)ccc2OCCn2c(C)nc3cnc(C4CC4)c(C#N)c3c2=O)c2scc(C(=O)NS(C)(=O)=O)c2n1 [compound 385]
< 50 | 25.4 | Cc1nc2cc(C(F)(F)F)c(-c3ccncc3)c(C#N)c2c(=O)n1CCOc1ccc(Cl)cc1-c1cccc(C(=O)O)c1 [compound 386]
50 to 1000 | 619 | Cc1nc2cc(C(F)(F)F)c(N3CCN(c4ccncc4)CC3)c(C#N)c2c(=O)n1CCOc1ccc(Cl)cc1-c1cccc(C(=O)O)c1 [compound 387]
< 50 | 6.29 | Cc1nc2cc(C(F)(F)F)c(-c3cccnc3)c(C#N)c2c(=O)n1CCOc1ccc(Cl)cc1-c1cccc(C(=O)O)c1 [compound 388]
< 50 | 12.3 | Cc1cc(-c2cc(Cl)ccc2OCCn2c(C)nc3cc(C(F)(F)F)c(-c4cnc(C)c(C)c4)c(C#N)c3c2=O)c2scc(C(=O)O)c2n1 [compound 389]
< 50 | 1.75 | Cc1cc(-c2cc(Cl)ccc2OCCn2c(C)nc3cc(C(F)(F)F)c(Cc4ccccn4)nc3c2=O)c2scc(C(=O)O)c2n1 [compound 390]
< 50 | 3.52 | CCCCc1nc2c(=O)n(CCOc3ccc(Cl)cc3-c3cc(C)nc4c(C(=O)O)csc34)c(C)nc2cc1C(F)(F)F [compound 391]
< 50 | 25.1 | Cc1cc(-c2cc(Cl)ccc2OCCn2c(C)nc3cc(Cl)c(-c4cc(F)cnc4C)c(C#N)c3c2=O)c2scc(C(=O)O)c2n1 [compound 392]
< 50 | 11.8 | Cc1cc(-c2c(Cl)cc3nc(C)n(CCOc4ccc(Cl)cc4-c4cc(C)nc5c(C(=O)O)csc45)c(=O)c3c2C#N)ccn1 [compound 393]
< 50 | 21.8 | Cc1cc(-c2cc(Cl)ccc2OCCn2c(C)nc3cc(Cl)c(-c4cncc(F)c4)c(C#N)c3c2=O)c2scc(C(=O)O)c2n1 [compound 394]
< 50 | 9.68 | Cc1cc(-c2cc(Cl)ccc2OCCn2c(C)nc3cc(Cl)c(-c4cccnc4C)c(C#N)c3c2=O)c2scc(C(=O)O)c2n1 [compound 395]
< 50 | 18.1 | Cc1cc(-c2c(Cl)cc3nc(C)n(CCOc4ccc(Cl)cc4-c4cc(C)nc5c(C(=O)O)csc45)c(=O)c3c2C#N)cc(C)n1 [compound 396]
< 50 | 10.5 | Cc1cc(-c2cc(Cl)ccc2OCCn2c(C)nc3cc(Cl)c(-c4ccc(N(C)C)nc4)c(C#N)c3c2=O)c2scc(C(=O)O)c2n1 [compound 397]
50 to 1000 | 149 | Cc1cc(-c2cc(Cl)ccc2OCCn2c(C)nc3cc(C(F)(F)F)cc(C#N)c3c2=O)c2scc(C(=O)NCC(=O)O)c2n1 [compound 398]
50 to 1000 | 69.9 | Cc1cc(-c2cc(Cl)ccc2OCCn2c(C)nc3cc(C(F)(F)F)c(Cc4cccnc4)c(Cl)c3c2=O)c2scc(C(=O)O)c2n1 [compound 399]
< 50 | 4.68 | Cc1cc(-c2cc(Cl)ccc2OCCn2c(C)nc3c(C)nc(CC4CCOCC4)c(C#N)c3c2=O)c2scc(C(=O)O)c2n1 [compound 400]
< 50 | 12.6 | COc1ccc(C#N)c2c(=O)n(CCOc3ccc(Cl)cc3-c3ccnc4c(C(=O)O)csc34)c(C)nc12 [compound 403]
< 50 | 10.1 | COc1ccc2nc(C)n(CCOc3ccc(Cl)cc3-c3ccnc4c(C(=O)O)csc34)c(=O)c2c1C#N [compound 404]
< 50 | 19.7 | COc1cc(C#N)c2c(=O)n(CCOc3ccc(Cl)cc3-c3ccnc4c(C(=O)O)csc34)c(C)nc2c1 [compound 405]

SMILES | IC50 [1] [nM] | IC50 [2] [nM]
Cc1nc2cc(C(F)(F)F)cc(C#N)c2c(=O)n1CCOc1ccc(Cl)cc1-c1cccc2c(C(=O)O)csc12 [compound 402] | 50 to 1000 | 124
